Laboratory results from patent US11602530B2, “CRM1 inhibitors for treating epilepsy” (Biogen MA Inc., priority 2016, dated 2023).

Columns and labels:
male NMRI mice = assay: Pilocarpine model of temporal lobe epilepsy (TLE), spontaneous recurrent seizures; format: in vivo; details: for reduction in seizure activity: 7.5 mg/kg per os every other day for two weeks
Description: FIG. 1 is a description of a pilocarpine model of temporal lobe epilepsy (TLE) in male NMRI mice. The treatment phase was compound E-1 in Table I administered at 7.5 mg/kg per os or vehicle, every other day for the two week treatment period. Vehicle was 0.6% plasdone PVP K29/32 and 0.6% poloxamer Pluronic F68 in water.
A well-established pilocarpine model of temporal lobe epilepsy (TLE) that has been recently optimized for mice can be used (Mazzuferi et al., Exp. Neurol. 238:156-67). Status epilepticus (SE) can be initiated with a single 300 mg/kg intraperitoneal (i.p.) injection of pilocarpine in male NMRI mice, 30 min after N-methylscopolamine bromide administration (1 mg/kg; i.p.). Within 10 to 45 min after pilocarpine treatment, animals display generalized tonic-clonic seizures that progress to continuous convulsive activity, i.e. SE. To limit the duration of SE, mice can be injected with a bolus dose of diazepam (10 mg/kg; i.p.) after 3 h. The mice typically show spontaneous recurrent seizures within few days after SE and continue to display them throughout their lifetime.
A separate cohort of animals (for example, n=40) can then undergo continuous monitoring for spontaneous recurrent seizures during 28 consecutive days beginning 8-10 weeks following pilocarpine induced SE. The seizure monitoring can be performed by simultaneous recording of locomotor activity with a 3D accelerometer and video. This system allows for automated detection of behavioral seizures by analysis of the accelerometry signal. All behavioral seizures can be scored according to the Racine's protocol after detailed review of corresponding video clips by experienced technical personnel. Secondary generalized seizures, a Racine's score of 3-5, will be quantified and used for calculation of total seizure counts. […]

[1] = Body weight of treated mice in the pilocarpine TLE model; format: in vivo; details: 7.5 mg/kg per os every other day for two weeks
Description: Following the general procedure described in Example 1 and outlined in FIG. 1, Compound E1 of Table I was administered to mice during the treatment phase at 7.5 mg/kg per os every other day for the two weeks of treatment.

CC(C)(C)C(=O)NNC(=O)/C=C\n1cnc(-c2cc(C(F)(F)F)cc(C(F)(F)F)c2)n1 [Compound E-1, (Z)-3-(3-(3,5-bis(trifluoromethyl)phenyl)-1H-1,2,4-triazol-1-yl)-N′-pivaloylacrylohydrazide]
reduction in seizure occurrence in comparison to vehicle treated mice (male NMRI mice; a significant number of mice, chronic administration (FIG. 4)): 50% | reduction in seizure activity (male NMRI mice; all treated mice (24 dosed)): ≥ 50% | reduction in seizure activity (male NMRI mice; six of the treated mice): 100% | change in body weight of the treated mice [1]: no change
